Holding throughout (type): cell-based
In one experiment the target is T1, GIP-R (Homo sapiens, UniProt P48546).
T1 sequence (P48546 22-466): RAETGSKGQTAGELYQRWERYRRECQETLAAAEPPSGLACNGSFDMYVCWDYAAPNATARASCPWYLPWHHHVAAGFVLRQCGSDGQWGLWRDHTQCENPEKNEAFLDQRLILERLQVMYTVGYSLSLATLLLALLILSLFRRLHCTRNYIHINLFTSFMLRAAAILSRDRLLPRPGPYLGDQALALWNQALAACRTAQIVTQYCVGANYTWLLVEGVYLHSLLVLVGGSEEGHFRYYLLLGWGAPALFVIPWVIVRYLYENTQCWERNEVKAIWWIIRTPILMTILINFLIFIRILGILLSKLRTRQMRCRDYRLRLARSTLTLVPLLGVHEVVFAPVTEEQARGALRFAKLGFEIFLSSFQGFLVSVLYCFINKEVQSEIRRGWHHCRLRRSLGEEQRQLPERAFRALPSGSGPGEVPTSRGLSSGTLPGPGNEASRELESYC
As to the kind of experiment: HitHunter cAMP assay (GIP-R). As to conditions: cAMP; for Emax: read-out: (Emax) GIP-R. The gist of the method:
(§1)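 cAMP, luminescence read: agonist 22-pt 2× dilution in DMSO, duplicate, 30 min RT on 10,000 cells/well in 1×HBSS/10 mM HEPES/625 μM IBMX/0.2% BSA; anti-cAMP reagent 1 h RT dark, then O/N RT dark before read.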

Experiment [1] concerns the target T2, GLP-1R (Homo sapiens, UniProt P43220). Description: PathHunter β-arrestin assay. The gist of the method: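 Luminescence read-out of β-arrestin recruitment (enzyme-fragment complementation detection, 3 h at room temperature in the dark) after 90 min agonist stimulation at 37 °C. Agonists tested as 22-point 2× serial dilutions in duplicate, in medium containing 0.2% BSA.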

The target of experiment [2] is T2, GLP-1R. As to the kind of experiment: HitHunter cAMP assay (GLP-1R). Conditions: cAMP; for Emax: read-out: (Emax) GLP-1R. The gist of the method: as §1
Setting [3] is: Table 3, read-out: EC50 GIP-R/nM.
[4] abbreviates: PathHunter β-arrestin assay, read-out: β-arrestin activity EC50.
Setting [5] is: Table 3, read-out: EC50 GLP-1R/nM.
The mark [6] stands for this setting: Table 3A, read-out: EC50 GLP-1R/nM.
[7] abbreviates: Table 3A, read-out: EC50 GIP-R/nM.

Structures are written as SMILES. Like-named read-outs stand apart in the source and are kept apart here. Where only a bound is given, the exact number is not on record here.

T2 sequence (P43220 24-463): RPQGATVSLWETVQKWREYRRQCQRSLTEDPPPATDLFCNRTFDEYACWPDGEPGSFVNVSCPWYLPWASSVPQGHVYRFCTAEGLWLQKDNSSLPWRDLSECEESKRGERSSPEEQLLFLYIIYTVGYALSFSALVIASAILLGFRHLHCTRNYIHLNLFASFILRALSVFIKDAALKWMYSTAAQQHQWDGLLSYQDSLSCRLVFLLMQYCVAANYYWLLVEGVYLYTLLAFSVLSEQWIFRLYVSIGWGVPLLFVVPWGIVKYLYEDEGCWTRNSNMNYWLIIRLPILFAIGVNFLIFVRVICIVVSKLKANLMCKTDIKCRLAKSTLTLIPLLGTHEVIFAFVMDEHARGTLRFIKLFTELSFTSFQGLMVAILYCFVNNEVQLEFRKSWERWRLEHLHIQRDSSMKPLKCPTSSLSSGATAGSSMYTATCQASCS

As to `CCCCCCCCCCCCCCCC(=O)N[C@@H](CCC(=O)NCCCC[C@H](NC(=O)[C@H](CO)NC(=O)[C@@H]1CCCN1C(=O)[C@@H]1CCCN1C(=O)[C@@H]1CCCN1C(=O)[C@H](C)NC(=O)CNC(=O)[C@H](CO)NC(=O)[C@H](CO)NC(=O)[C@@H]1CCCN1C(=O)CNC(=O)CNC(=O)[C@H](C)NC(=O)[C@H](CC(C)C)NC(=O)[C@H](CC(C)C)NC(=O)[C@H](Cc1c[nH]c2ccccc12)NC(=O)[C@H](CC(N)=O)NC(=O)[C@@H](NC(=O)[C@H](Cc1ccccc1)NC(=O)[C@H](CCC(=O)O)NC(=O)C(C)(C)NC(=O)[C@H](C)NC(=O)[C@H](C)NC(=O)[C@H](CCC(N)=O)NC(=O)[C@H](CCCCN)NC(=O)[C@H](CC(=O)O)NC(=O)[C@H](CC(C)C)NC(=O)[C@H](Cc1ccc(O)cc1)NC(=O)[C@@H](NC(=O)[C@H](CO)NC(=O)[C@H](Cc1ccc(O)cc1)NC(=O)[C@H](CC(=O)O)NC(=O)[C@H](CO)NC(=O)[C@@H](NC(=O)[C@H](Cc1ccccc1)NC(=O)[C@@H](NC(=O)CNC(=O)[C@H](CCC(=O)O)NC(=O)CSCC(=O)NCCN1CCNC(=O)C1)[C@@H](C)O)[C@@H](C)O)[C@@H](C)CC)C(C)C)C(N)=O)C(=O)O` [Compound 37], the Emax on GIP-R (Table 3) was 10 to 21%; on GIP-R (Table 3A) it was 10 to 21%; at GLP-1R [2] (Table 3) it was 110%; on GLP-1R [2] (Table 3A) it was 110%. Moreover, the EC50 is 1 to 10 nM at GIP-R (setting [3]), over 1000 nM on GLP-1R [1] (setting [4]), under 1 nM on GLP-1R [2] (setting [5]) and under 1 nM on GLP-1R [2] (setting [6]).
On to `CCCCCCCCCCCCCCCC(=O)N[C@@H](CCC(=O)NCCCC[C@H](NC(=O)[C@H](CO)NC(=O)[C@@H]1CCCN1C(=O)[C@@H]1CCCN1C(=O)[C@@H]1CCCN1C(=O)[C@H](C)NC(=O)CNC(=O)[C@H](CO)NC(=O)[C@H](CO)NC(=O)[C@@H]1CCCN1C(=O)CNC(=O)CNC(=O)[C@H](C)NC(=O)[C@H](CC(C)C)NC(=O)[C@H](CC(C)C)NC(=O)[C@H](Cc1c[nH]c2ccccc12)NC(=O)[C@H](CC(N)=O)NC(=O)[C@@H](NC(=O)[C@H](Cc1ccccc1)NC(=O)[C@H](CCC(=O)O)NC(=O)C(C)(C)NC(=O)[C@H](C)NC(=O)[C@H](C)NC(=O)[C@H](CCC(N)=O)NC(=O)[C@H](CCCCN)NC(=O)[C@H](CC(=O)O)NC(=O)[C@H](CC(C)C)NC(=O)[C@H](Cc1ccc(O)cc1)NC(=O)[C@@H](NC(=O)[C@H](CO)NC(=O)[C@H](Cc1ccc(O)cc1)NC(=O)[C@H](CC(=O)O)NC(=O)[C@H](CO)NC(=O)[C@@H](NC(=O)[C@H](Cc1ccccc1)NC(=O)[C@@H](NC(=O)CNC(=O)[C@H](CCC(=O)O)NC(=O)CSCC(=O)NCCN1CCN(C)C(=O)C1)[C@@H](C)O)[C@@H](C)O)[C@@H](C)CC)C(C)C)C(N)=O)C(=O)O` [Compound 38], for which the Emax at GIP-R (Table 3) is 18 to 43%; on GIP-R (Table 3A) it was 18 to 43%; at GLP-1R [2] (Table 3), 97 to 104%; at GLP-1R [2] (Table 3A), 97 to 104%. The EC50 on GIP-R (setting [3]) was 1 to 10 nM; on GIP-R (setting [7]), 1 to 1000 nM; on GLP-1R [1] (setting [4]) it was over 1000 nM; at GLP-1R [2] (setting [5]) it was 0.1 to 1 nM; at GLP-1R [2] (setting [6]) it was 0.1 to 1 nM.
As for `CCCCCCCCCCCCCCCC(=O)N[C@@H](CCC(=O)NCCCC[C@H](NC(=O)[C@H](CO)NC(=O)[C@@H]1CCCN1C(=O)[C@@H]1CCCN1C(=O)[C@@H]1CCCN1C(=O)[C@H](C)NC(=O)CNC(=O)[C@H](CO)NC(=O)[C@H](CO)NC(=O)[C@@H]1CCCN1C(=O)CNC(=O)CNC(=O)[C@H](C)NC(=O)[C@H](CC(C)C)NC(=O)[C@H](CC(C)C)NC(=O)[C@H](Cc1c[nH]c2ccccc12)NC(=O)[C@H](CC(N)=O)NC(=O)[C@@H](NC(=O)[C@H](Cc1ccccc1)NC(=O)[C@H](CCC(=O)O)NC(=O)C(C)(C)NC(=O)[C@H](C)NC(=O)[C@H](C)NC(=O)[C@H](CCC(N)=O)NC(=O)[C@H](CCCCN)NC(=O)[C@H](CC(=O)O)NC(=O)[C@H](CC(C)C)NC(=O)[C@H](Cc1ccc(O)cc1)NC(=O)[C@@H](NC(=O)[C@H](CO)NC(=O)[C@H](Cc1ccc(O)cc1)NC(=O)[C@H](CC(=O)O)NC(=O)[C@H](CO)NC(=O)[C@@H](NC(=O)[C@H](Cc1ccccc1)NC(=O)[C@@H](NC(=O)CNC(=O)[C@H](CCC(=O)O)NC(=O)CSCC(=O)NCCN1CCOC1=O)[C@@H](C)O)[C@@H](C)O)[C@@H](C)CC)C(C)C)C(N)=O)C(=O)O` [Compound 39], the Emax on GIP-R (Table 3) lay within 40 to 60%; on GIP-R (Table 3A) it was 40 to 60%; at GLP-1R [2] (Table 3), 102 to 104%; on GLP-1R [2] (Table 3A), 102 to 104%. The EC50 on GIP-R (setting [3]) was 0.1 to 10 nM; at GIP-R (setting [7]), 0.1 to 10 nM; at GLP-1R [1] (setting [4]), over 1000 nM; at GLP-1R [2] (setting [5]) it was under 1 nM; at GLP-1R [2] (setting [6]) it was under 1 nM.
Consider `CCCCCCCCCCCCCCCC(=O)N[C@@H](CCC(=O)NCCCC[C@H](NC(=O)[C@H](CO)NC(=O)[C@@H]1CCCN1C(=O)[C@@H]1CCCN1C(=O)[C@@H]1CCCN1C(=O)[C@H](C)NC(=O)CNC(=O)[C@H](CO)NC(=O)[C@H](CO)NC(=O)[C@@H]1CCCN1C(=O)CNC(=O)CNC(=O)[C@H](C)NC(=O)[C@H](CC(C)C)NC(=O)[C@H](CC(C)C)NC(=O)[C@H](Cc1c[nH]c2ccccc12)NC(=O)[C@H](CC(N)=O)NC(=O)[C@@H](NC(=O)[C@H](Cc1ccccc1)NC(=O)[C@H](CCC(=O)O)NC(=O)C(C)(C)NC(=O)[C@H](C)NC(=O)[C@H](C)NC(=O)[C@H](CCC(N)=O)NC(=O)[C@H](CCCCN)NC(=O)[C@H](CC(=O)O)NC(=O)[C@H](CC(C)C)NC(=O)[C@H](Cc1ccc(O)cc1)NC(=O)[C@@H](NC(=O)[C@H](CO)NC(=O)[C@H](Cc1ccc(O)cc1)NC(=O)[C@H](CC(=O)O)NC(=O)[C@H](CO)NC(=O)[C@@H](NC(=O)[C@H](Cc1ccccc1)NC(=O)[C@@H](NC(=O)CNC(=O)[C@H](CCC(=O)O)NC(=O)CSCC(=O)NCCN1CCCCS1(=O)=O)[C@@H](C)O)[C@@H](C)O)[C@@H](C)CC)C(C)C)C(N)=O)C(=O)O` [Compound 40], for which the EC50 at GIP-R (EC50 GIP-R/nM, Table 3) is 1 to 10 nM; on GIP-R (read-out: EC50 GIP-R/nM, Table 3A), 1 to 1000 nM; at GLP-1R [1], over 1000 nM; on GLP-1R [2] (EC50 GLP-1R/nM, Table 3), 0.1 to 1 nM; on GLP-1R [2] (EC50 GLP-1R/nM, Table 3A) it was 0.1 to 1 nM. Further, the maximal effect (Emax) was 14 to 34% on GIP-R (Table 3), 14 to 34% on GIP-R (Table 3A), 101 to 105% on GLP-1R [2] (Table 3) and 101 to 105% at GLP-1R [2] (Table 3A).
As to `CCCCCCCCCCCCCCCC(=O)N[C@@H](CCC(=O)NCCCC[C@H](NC(=O)[C@H](CO)NC(=O)[C@@H]1CCCN1C(=O)[C@@H]1CCCN1C(=O)[C@@H]1CCCN1C(=O)[C@H](C)NC(=O)CNC(=O)[C@H](CO)NC(=O)[C@H](CO)NC(=O)[C@@H]1CCCN1C(=O)CNC(=O)CNC(=O)[C@H](C)NC(=O)[C@H](CC(C)C)NC(=O)[C@H](CC(C)C)NC(=O)[C@H](Cc1c[nH]c2ccccc12)NC(=O)[C@H](CC(N)=O)NC(=O)[C@@H](NC(=O)[C@H](Cc1ccccc1)NC(=O)[C@H](CCC(=O)O)NC(=O)C(C)(C)NC(=O)[C@H](C)NC(=O)[C@H](C)NC(=O)[C@H](CCC(N)=O)NC(=O)[C@H](CCCCN)NC(=O)[C@H](CC(=O)O)NC(=O)[C@H](CC(C)C)NC(=O)[C@H](Cc1ccc(O)cc1)NC(=O)[C@@H](NC(=O)[C@H](CO)NC(=O)[C@H](Cc1ccc(O)cc1)NC(=O)[C@H](CC(=O)O)NC(=O)[C@H](CO)NC(=O)[C@@H](NC(=O)[C@H](Cc1ccccc1)NC(=O)[C@@H](NC(=O)CNC(=O)[C@H](CCC(=O)O)NC(=O)CSCC(=O)NCCN1CCCS1(=O)=O)[C@@H](C)O)[C@@H](C)O)[C@@H](C)CC)C(C)C)C(N)=O)C(=O)O` [Compound 42], the Emax at GIP-R (Table 3) was 28 to 46%; at GIP-R (Table 3A), 28 to 46%; on GLP-1R [2] (Table 3), 102 to 109%; at GLP-1R [2] (Table 3A), 102 to 109%. Moreover, the EC50 on GIP-R (setting [3]) is 0.1 to 10 nM; on GIP-R (setting [7]), 0.1 to 100 nM; at GLP-1R [1] (setting [4]), over 1000 nM; on GLP-1R [2] (setting [5]), under 1 nM; on GLP-1R [2] (setting [6]), under 1 nM.

Source of the values: patent publication US20260176320A1, “MODULATORS OF G-PROTEIN COUPLED RECEPTORS” (priority 2018, published 2026).
